Laboratory results: article PMC9021598, “Structural Basis of Human Dimeric α-Amino-β-Carboxymuconate-ε-Semialdehyde Decarboxylase Inhibition With TES-1025” (Frontiers in Molecular Biosciences, 2022)

Molecular target: T1, human α-amino-β-carboxymuconate-ε-semialdehyde decarboxylase (ACMSD) (Homo sapiens, UniProt Q8TDX5)
T1 construct: recombinant hACMSD expressed in Pichia pastoris; homodimer
Assay: X-ray co-crystal structure at […] Å; Ki from coupled spectrophotometric assay (Dixon tight-binding competitive inhibition)
Format: biochemical

T1 sequence (Q8TDX5 whole entry): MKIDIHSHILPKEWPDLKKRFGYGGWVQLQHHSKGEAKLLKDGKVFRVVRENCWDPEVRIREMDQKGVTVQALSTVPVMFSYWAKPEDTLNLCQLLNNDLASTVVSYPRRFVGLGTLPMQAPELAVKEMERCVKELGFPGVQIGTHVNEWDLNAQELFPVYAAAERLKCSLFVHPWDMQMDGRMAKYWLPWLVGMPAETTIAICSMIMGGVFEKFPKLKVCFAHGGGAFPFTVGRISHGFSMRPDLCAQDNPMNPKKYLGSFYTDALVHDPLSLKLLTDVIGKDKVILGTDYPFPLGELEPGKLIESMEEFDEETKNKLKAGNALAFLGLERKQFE

Ki: 0.85 ± 0.22 nM
SMILES: N#Cc1c(-c2cccs2)nc(SCc2cccc(CC(=O)O)c2)[nH]c1=O [compound 4, 2-[3-[(5-cyano-6-oxo-4-thiophen-2-yl-1H-pyrimidin-2-yl)sulfanylmethyl]phenyl]acetic acid]
